Numbers after ± are expanded uncertainties.
Assays:
[1] = xn = mol fraction of the nth substance listed; conditions: x2 = 0; for surface tension liquid-gas: Maximal bubble pressure; for mass density: 100 kPa, Liquid, Vibrating tube method
[2] = for surface tension liquid-gas: Maximal bubble pressure; for mass density: 100 kPa, Liquid, Vibrating tube method

Row | SMILES | surface tension liquid-gas ([1]; 288.15 K) [mN/m] | mass density ([1]; 288.15 K) [kg/m3] | surface tension liquid-gas ([1]; 293.15 K) [mN/m] | mass density ([1]; 293.15 K) [kg/m3] | surface tension liquid-gas ([1]; 298.15 K) [mN/m] | mass density ([1]; 298.15 K) [kg/m3] | surface tension liquid-gas ([1]; 303.15 K) [mN/m] | mass density ([1]; 303.15 K) [kg/m3] | surface tension liquid-gas ([1]; 308.15 K) [mN/m] | mass density ([1]; 308.15 K) [kg/m3] | surface tension liquid-gas ([1]; 313.15 K) [mN/m] | mass density ([1]; 313.15 K) [kg/m3] | surface tension liquid-gas ([1]; 318.15 K) [mN/m] | mass density ([1]; 318.15 K) [kg/m3] | surface tension liquid-gas ([2]; 288.15 K) [mN/m] | mass density ([2]; 288.15 K) [kg/m3] | surface tension liquid-gas ([2]; 293.15 K) [mN/m] | mass density ([2]; 293.15 K) [kg/m3] | surface tension liquid-gas ([2]; 298.15 K) [mN/m] | mass density ([2]; 298.15 K) [kg/m3] | other results
1 | CO [methanol] + COCC[n+]1ccn(C)c1.O=S(=O)([N-]S(=O)(=O)C(F)(F)F)C(F)(F)F | 24.4 ± 2.4 | 796.037 ± 4.9 | 23.8 ± 2.4 | 791.352 ± 4.9 | 22.9 ± 2.3 | 786.643 ± 4.9 | 22.3 ± 2.2 | 781.913 ± 4.8 | 21.8 ± 2.2 | 777.16 ± 4.8 | 21.1 ± 2.1 | 772.38 ± 4.8 | 20.5 ± 2.1 | 767.567 ± 4.8 |  |  |  |  |  |  | 
2 | CO [methanol] |  |  |  |  |  |  |  |  |  |  |  |  |  |  | 24.4 ± 2.4 | 796.037 ± 4.9 | 23.8 ± 2.4 | 791.352 ± 4.9 | 22.9 ± 2.3 | 786.643 ± 4.9 | surface tension liquid-gas ([2]; 303.15 K): 22.3 ± 2.2 mN/m; mass density ([2]; 303.15 K): 781.913 ± 4.8 kg/m3; surface tension liquid-gas ([2]; 308.15 K): 21.8 ± 2.2 mN/m; mass density ([2]; 308.15 K): 777.16 ± 4.8 kg/m3; surface tension liquid-gas ([2]; 313.15 K): 21.1 ± 2.1 mN/m; mass density ([2]; 313.15 K): 772.38 ± 4.8 kg/m3; surface tension liquid-gas ([2]; 318.15 K): 20.5 ± 2.1 mN/m; mass density ([2]; 318.15 K): 767.567 ± 4.8 kg/m3
3 | CCO [ethanol] + COCC[n+]1ccn(C)c1.O=S(=O)([N-]S(=O)(=O)C(F)(F)F)C(F)(F)F | 23.3 ± 2.3 | 793.91 ± 4.9 | 22.7 ± 2.3 | 789.66 ± 4.9 | 22.2 ± 2.2 | 785.73 ± 4.9 | 21.6 ± 2.2 | 781.05 ± 4.8 | 21.1 ± 2.1 | 776.7 ± 4.8 | 20.7 ± 2.1 | 772.31 ± 4.8 | 20 ± 2 | 767.88 ± 4.8 |  |  |  |  |  |  | 
4 | COCC[n+]1ccn(C)c1.O=S(=O)([N-]S(=O)(=O)C(F)(F)F)C(F)(F)F |  |  |  |  |  |  |  |  |  |  |  |  |  |  | 41.4 ± 4.2 | 1515.3 ± 9.4 | 41.2 ± 4.1 | 1510.15 ± 9.4 | 41 ± 4.1 | 1505.03 ± 9.4 | surface tension liquid-gas ([2]; 303.15 K): 40.7 ± 4.1 mN/m; mass density ([2]; 303.15 K): 1499.92 ± 9.3 kg/m3; surface tension liquid-gas ([2]; 308.15 K): 40.5 ± 4.1 mN/m; mass density ([2]; 308.15 K): 1494.83 ± 9.3 kg/m3; surface tension liquid-gas ([2]; 313.15 K): 40.3 ± 4 mN/m; mass density ([2]; 313.15 K): 1489.77 ± 9.3 kg/m3; surface tension liquid-gas ([2]; 318.15 K): 40.1 ± 4 mN/m; mass density ([2]; 318.15 K): 1484.72 ± 9.2 kg/m3
